Data from PubChem BioAssay (NCI).
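All cell lines were grown in 96-well plates and treated with compound for 48 hours. TGI: total growth inhibition.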

Columns and labels:
Assay in all cases: inhibition of tumour cell growth, NCI panel, 48 h
SW-620 colon = system: SW-620 colon
SK-MEL-2 melanoma = system: SK-MEL-2 melanoma
786-0 renal = system: 786-0 renal
SK-MEL-28 melanoma = system: SK-MEL-28 melanoma
SNB-19 CNS = system: SNB-19 CNS
HCC-2998 colon = system: HCC-2998 colon
OVCAR-8 ovarian = system: OVCAR-8 ovarian
SK-OV-3 ovarian = system: SK-OV-3 ovarian
HT29 colon = system: HT29 colon
EKVX NSCLC = system: EKVX NSCLC

Structure (SMILES)	TGI (SW-620 colon)	TGI (SK-MEL-2 melanoma)	TGI (786-0 renal)	TGI (SK-MEL-28 melanoma)	TGI (SNB-19 CNS)	TGI (HCC-2998 colon)	TGI (OVCAR-8 ovarian)	TGI (SK-OV-3 ovarian)	TGI (HT29 colon)	TGI (EKVX NSCLC)
Cc1nc2ccccc2cc1C[N+]12CN3CN(CN(C3)C1)C2	> 100 µM	39.8 µM	37.8 µM	45.1 µM	56.5 µM	30.8 µM	> 100 µM	98.9 µM	60.8 µM	50 µM
OC1(c2ccc(Cl)cc2)c2ccccc2C2=NCc3ccccc3CN21 (stereo not given)	15.8 µM	16.9 µM	19.4 µM	9.58 µM	13.4 µM	5.13 µM	24.8 µM	21.2 µM	27.8 µM	20.6 µM
CC12CCC(C1)C(C)(C)C2OC(=O)c1ccccc1C(=O)O (stereo not given)	> 100 µM	> 100 µM	> 100 µM	> 100 µM	> 100 µM	> 100 µM	> 100 µM	> 100 µM	> 100 µM	> 100 µM
CN(C)/C=N/S(=O)(=O)c1nn2c(C=O)c(-c3cc4ccccc4oc3=O)nc2s1	> 29.4 µM	40.1 µM	5.24 µM	12.1 µM	> 100 µM	48.5 µM	> 42 µM	> 100 µM	2.97 µM	43 µM
O=C(NNCc1ccccc1O)c1ccccc1O	> 100 µM	25.8 µM	> 100 µM	> 100 µM	> 100 µM	45.1 µM	> 100 µM	68.6 µM	> 100 µM	> 100 µM
OCCNc1nc2c(N3CCCC3)nc(N3CCNCC3)nc2nc1NCc1ccccc1	42.4 µM	28.7 µM	28 µM	32.5 µM	29.4 µM	29.1 µM	30.5 µM	31.1 µM	21.7 µM	26.9 µM
CN1CCN(c2c(O)c3c(c(O)c2Cl)C(=O)C=CC3=O)CC1	0.369 µM	2.64 µM	0.718 µM	2.51 µM	6.32 µM	3.99 µM	0.656 µM	8.34 µM	1.38 µM	3.04 µM
COC1=C(OC)C(=O)C(Cc2c(Cl)nc3n2CCS3)=C(C)C1=O	33.8 µM	32.2 µM	37.9 µM	27.2 µM	33.1 µM	37.6 µM	29.8 µM	25.1 µM	35.6 µM	26.3 µM
Nc1ccc(-c2nc3cc(F)ccc3s2)cc1	> 100 µM	> 100 µM	> 100 µM	> 100 µM	> 100 µM	> 100 µM	> 100 µM	> 100 µM	> 100 µM	> 46.6 µM
O=C1C=C(NCCc2cc(Br)c(O)c(Br)c2)C(=O)c2[nH]cnc21	> 100 µM	> 100 µM	> 100 µM	> 100 µM	> 100 µM	> 100 µM	> 100 µM	> 100 µM	80.8 µM	> 100 µM
O=C(NC(CO)CO)c1ccc2cc(C(=O)N3CC(CCl)c4ccc([N+](=O)[O-])cc43)[nH]c2c1 (stereo not given)	> 100 µM	> 100 µM	> 100 µM	> 100 µM	> 100 µM	> 100 µM	> 100 µM	> 100 µM	> 100 µM	> 100 µM
CCOC(=O)/C=C1/Nc2cc(F)c(F)cc2NC1=O	> 100 µM	> 100 µM	> 100 µM	> 100 µM	> 100 µM	> 100 µM	> 100 µM	> 100 µM	> 100 µM	> 100 µM
Cc1csc2n(C)c(=O)c3ccccc3[n+]12	> 100 µM	> 100 µM	> 100 µM	> 100 µM	> 100 µM	> 100 µM	> 100 µM	> 100 µM	> 100 µM	> 100 µM
CCOC(=O)c1ccc(NC(NC(=O)CC)(C(F)(F)F)C(F)(F)F)cc1	> 100 µM	> 100 µM	> 100 µM	> 100 µM	> 100 µM	> 100 µM	> 100 µM	> 100 µM	> 100 µM	> 100 µM
O=c1c(S(=O)(=O)Oc2ccccc2)coc2cc(F)ccc12	> 100 µM	> 100 µM	> 100 µM	> 100 µM	> 100 µM	> 100 µM	> 100 µM	> 100 µM	> 100 µM	> 100 µM
Cc1ccsc1/C=N/Nc1ccccn1	> 100 µM	> 100 µM	> 100 µM	> 100 µM	> 100 µM	> 100 µM	> 100 µM	> 100 µM	> 100 µM	96.5 µM
